The source of these data is publication PMC9736291 (International Journal of Molecular Sciences, 2022).

The target in data set [1] is human MDR1 (P-glycoprotein, ABCB1) (Homo sapiens, UniProt P08183). The data set is described as follows: in vitro. As to conditions: dog; for Papp A→B: MDCK-MDR1, Papp A–B; for Papp B→A: MDCK-MDR1, Papp B–A.
Data set [2] can be described thus: in vitro. As to conditions: guinea pig, brain homogenate.
For data set [3] the following is noted: in vivo, iv; cited from earlier work.
Data set [4] in a line: in vitro. As to conditions: Atp1a1^S/S (gene-edited), mouse, brain homogenate.
For data set [5] the following is noted: in vivo, po; cited from earlier work.
Data set [6] in a line: in vitro. As to conditions: both, human, brain homogenate.
The next data set can be described thus: in vivo. The settings on record: Atp1a1^S/S (gene-edited), mouse.
For data set [7] the following is noted: Atp1a1^S/S (gene-edited), mouse, in vivo; for Abrain / Cbrain (mean total brain concentration) / Cu,brain (unbound brain concentration): 0.6 mg/kg.
Data set [8] concerns the target T1, human MDR1 (Homo sapiens, UniProt P08183). The settings on record: dog, MDCK-MDR1.
Data set [9] has as its system ReN VM cells. The settings on record: cited from earlier work.
The test system of data set [10] is ReN VM cells. The settings on record: human.
Data set [11] in a line: in vitro. As to conditions: guinea pig, plasma.
Data set [12] has as its system PrP^C. The class given is cell-based, human. As to conditions: ReN VM ATP1A1^r/r cells whose ATP1A1 does not bind CGs.
A further data set concerns HeLa cells. As to conditions: cited from earlier work.
Data set [13] concerns PrP^C. The class given is cell-based, human.
For data set [14], the system named is PrP^C. It is filed as cell-based, human. As to conditions: differentiated T98G cells.
The conditions of data set [15]: cited from earlier work.
The target in data set [16] is T1, human MDR1. Also noted: host or cells: MDCKII (canine kidney) cells, canine MDR1 deleted, human MDR1 gene inserted; method as in PMID 22906709, PMID 15620875. As to conditions: published values; cited from earlier work.

Read-outs that look alike come from different tables or passages of the source.

Chain of human MDR1 (P-glycoprotein, ABCB1) (P08183 whole entry): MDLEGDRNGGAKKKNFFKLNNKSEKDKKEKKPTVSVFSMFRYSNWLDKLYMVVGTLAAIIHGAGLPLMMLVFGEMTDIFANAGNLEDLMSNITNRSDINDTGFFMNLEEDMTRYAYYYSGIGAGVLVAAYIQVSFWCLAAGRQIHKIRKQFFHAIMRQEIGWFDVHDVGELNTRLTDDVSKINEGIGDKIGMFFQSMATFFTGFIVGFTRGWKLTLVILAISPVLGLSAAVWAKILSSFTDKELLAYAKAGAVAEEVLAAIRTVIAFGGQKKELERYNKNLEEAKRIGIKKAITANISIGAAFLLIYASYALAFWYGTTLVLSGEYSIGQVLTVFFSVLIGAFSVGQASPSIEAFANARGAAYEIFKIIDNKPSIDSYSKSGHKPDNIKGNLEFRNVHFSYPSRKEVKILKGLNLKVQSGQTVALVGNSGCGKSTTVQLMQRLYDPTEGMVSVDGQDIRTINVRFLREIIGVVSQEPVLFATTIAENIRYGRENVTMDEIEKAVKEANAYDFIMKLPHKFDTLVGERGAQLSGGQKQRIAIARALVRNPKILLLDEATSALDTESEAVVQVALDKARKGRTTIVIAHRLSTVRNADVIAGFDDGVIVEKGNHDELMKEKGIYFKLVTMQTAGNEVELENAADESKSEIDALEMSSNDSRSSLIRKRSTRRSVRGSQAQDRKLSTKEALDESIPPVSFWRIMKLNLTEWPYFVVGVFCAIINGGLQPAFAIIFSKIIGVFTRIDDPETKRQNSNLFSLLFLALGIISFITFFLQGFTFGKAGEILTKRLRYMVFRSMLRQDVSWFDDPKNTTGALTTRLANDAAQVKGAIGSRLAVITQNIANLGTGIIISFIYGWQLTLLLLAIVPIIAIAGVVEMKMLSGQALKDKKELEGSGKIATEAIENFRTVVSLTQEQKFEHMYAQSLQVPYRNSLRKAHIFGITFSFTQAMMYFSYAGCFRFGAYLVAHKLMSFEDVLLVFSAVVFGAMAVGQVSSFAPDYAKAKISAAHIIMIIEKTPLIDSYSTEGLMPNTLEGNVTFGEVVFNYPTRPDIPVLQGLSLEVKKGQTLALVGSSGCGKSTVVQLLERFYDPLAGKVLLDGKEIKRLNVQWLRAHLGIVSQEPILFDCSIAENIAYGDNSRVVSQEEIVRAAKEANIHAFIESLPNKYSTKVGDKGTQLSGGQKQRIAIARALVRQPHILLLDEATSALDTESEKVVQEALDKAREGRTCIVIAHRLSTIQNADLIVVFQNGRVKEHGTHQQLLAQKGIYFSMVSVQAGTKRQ
T1 sequence (P08183 whole entry): as above

As usually defined, the Papp A→B is how fast a substance crosses the layer from the apical side. A high value points to fast passage. For orientation: Papp B→A means how fast a substance crosses the layer from the basolateral side. As a reminder, the fraction unbound is free concentration divided by total concentration. A higher fraction unbound goes with much free substance. Consider `CO[C@H]1C[C@H](O[C@H]2CC[C@@]3(C)[C@H](CC[C@@H]4[C@@H]3CC[C@]3(C)[C@@H](C5=CC(=O)OC5)[C@@H](OC(C)=O)C[C@]43O)C2)O[C@@H](C)[C@@H]1O` [oleandrin, reference compound], for which the “estimated total brain concentration attainable in human brains” value was at most 18 nM. In data set [1], this compound came in with a Papp A→B of 7.06 ×10⁻⁶ cm/s and a basolateral-to-apical permeability (Papp B→A) of 146 ×10⁻⁶ cm/s. Further, the fraction unbound in “in vitro [2]” came to 0.219. Also, the “cerebrum levels relative to plasma levels” value in data set [3] is 6 fold. Also, in the data set “in vitro [4]”, the fraction unbound amounted to 0.24. Also, the plasma levels in [5] is listed as 3 nM. For the same compound, in the data set “in vitro [6]”, the fraction unbound amounted to 0.316. Also, in “in vivo”, the Kp uu came out at 0.27. The “Vu,brain” value in [7] is given as 3.98 mL/g brain. Further, in data set [7] (sc), the Abrain is on record as 10.58 ng/g brain, the “Cbrain (mean total brain concentration)” value was 19.23 nM and the “Cu,brain (unbound brain concentration)” value was found to be 4.61 nM. Besides, the “Papp B–A” value on human MDR1 [8] came out at 145.79. The “concentrations at which toxic” value in the data set with ReN VM cells [9] is listed as “exceeding 4 nM”. Besides, the “toxicity threshold (concentration at which all three cellular health indicators dropped to 75% of untreated)” value in the data set on ReN VM cells [10] was 2.7 nM. The compound further yielded a fraction unbound in “in vitro [11]” of 0.219.
In general, IC50 refers to the concentration that inhibits the measured activity by half. As to `COC1CC(OC2CCC3(C)C(CCC4C3CCC3(C)C(C5=CC(=O)OC5)C(OC(C)=O)CC43O)C2)OC(C)C1=O` (centres unmarked) [KDC203, 4′-dehydro-oleandrin], the “estimated total brain concentration attainable in human brains” value is 27 nM and the “estimated unbound concentration attainable in human brains” value is given as about 10 nM. In [1], this compound displayed a Papp A→B of 11.6 ×10⁻⁶ cm/s and a Papp B→A of 41.9 ×10⁻⁶ cm/s. Further, the fraction unbound in “in vitro [2]” came to 0.294. Moreover, the “reduction in PrP^C levels” value in the data set with PrP^C [12] was “no KDC203-mediated reduction in PrP^C levels was observed”. The IC50 with HeLa cells was 46 nM. In the data set “in vitro [4]”, this compound came in with a fraction unbound of 0.33. The “maximum reduction in steady-state PrP^C levels (3F4-reactive signals)” value with PrP^C [13] was found to be 84%. Also, in the data set “in vitro [6]”, the fraction unbound was 0.395. Further, in “in vivo”, the Kp uu was 0.44. In addition, the “reduction in PrP^C levels” value in the data set with PrP^C [14] is reported as “recapitulate the KDC203-dependent reduction in PrP^C levels”. For the same compound, the “Vu,brain” value in [7] amounted to 2.90 mL/g brain. Besides, in data set [7] (sc), the “brain levels relative to heart levels” value is reported as 3.5 fold, the “total brain concentration of KDC203 relative to oleandrin” value was 1.5 fold, the Abrain is 16.75 ng/g brain and the “Cbrain (mean total brain concentration)” value stood at 30.46 nM. Further, in [7] (sc), the “Cu,brain (unbound brain concentration)” value is 10.05 nM. At human MDR1 [8], the “Papp A–B” value is listed as 7.24, the “Papp B–A” value is 70.60 and the “reduction of extrusion on addition of Zosuquidar” value was “more than 50%”. Further, the “oral effectiveness relative to oleandrin (lethal doses oral versus intravenous), higher by” value in data set [15] (cats) was “approximately 20%”. Besides, the “oral toxicity relative to oleandrin” value in [15] (in vivo, po) was “almost twofold lower”. In the data set on ReN VM cells [10], the “concentrations at which cytotoxicity observed” value is recorded as over 40 nM and the “toxicity threshold (concentration at which all three cellular health indicators dropped to 75% of untreated)” value was found to be 46 nM. Besides, in “in vitro [11]”, the fraction unbound came to 0.359.
On to `C[C@H]1O[C@@H](O[C@H]2[C@@H](O)C[C@H](O[C@H]3[C@@H](O)C[C@H](O[C@H]4CC[C@@]5(C)[C@H](CC[C@@H]6[C@@H]5C[C@@H](O)[C@]5(C)[C@@H](C7=CC(=O)OC7)CC[C@]65O)C4)O[C@@H]3C)O[C@@H]2C)C[C@H](O)[C@@H]1O` [digoxin], for which the “PappA-B, published value” on human MDR1 [16] was 0.5 ×10⁻⁶ cm/s.
